The test addresses human HPK1 (MAP4K1) (Homo sapiens (Human), UniProt Q92918). Put plainly: HPK1 IC50 Assay (TR-FRET peptide phosphorylation). The conditions noted are these: recombinant HPK1 kinase domain 0.15 nM, 10 μM ATP, 1 μM STK S1 peptide; geometric mean of multiple experiments. It is filed as biochemical. The procedure, abridged:
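Readout: TR-FRET (665 nm/620 nm) after EDTA stop, detecting STK S1 peptide (1 μM) phosphorylation by 0.15 nM HPK1 kinase domain, ATP-pre-activated, at 10 μM ATP over 3 h, 25° C, pH 7.0. IC50s from four-parameter variable-slope fits, normalized to staurosporine and DMSO, averaged geometrically.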
Background: TR-FRET usually uses a lanthanide donor and a delayed reading to cut background.
Sequence of human HPK1 (MAP4K1) (Q92918 17-274): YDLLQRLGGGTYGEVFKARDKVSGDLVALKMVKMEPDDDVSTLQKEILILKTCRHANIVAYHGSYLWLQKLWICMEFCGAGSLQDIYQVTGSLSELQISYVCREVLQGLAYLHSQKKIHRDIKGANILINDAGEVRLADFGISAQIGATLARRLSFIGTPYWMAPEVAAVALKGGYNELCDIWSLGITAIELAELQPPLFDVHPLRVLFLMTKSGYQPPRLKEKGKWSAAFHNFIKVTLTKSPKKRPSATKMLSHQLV
What is called IC50 is the concentration that gives 50% inhibition. Turning to `CC(C)n1cnc2cc(-c3cnc4c(c3)N([C@H]3C[C@@](C)(N5CCCCC5)C3)C(=O)C4(C)C)nc(Nc3cc(C(=O)NC4(C(F)(F)F)CC4)c(Cl)c(F)c3F)c21` [Example 204, 2-Chloro-5-((6-(3,3-dimethyl-1-((1s,3s)-3-methyl-3-(piperidin-1-yl)cyclobutyl)-2-oxo-2,3-dihydro-1H-pyrrolo[3,2-b]pyridin-6-yl)-3-isopropyl-3H-imidazo[4,5-c]pyridin-4-yl)amino)-3,4-difluoro-N-(1-(trifluoromethyl)cyclopropyl)benzamide], the IC50 worked out at 0.2 nM. The same measure for `CC(C)n1cnc2cc(-c3cnc4c(c3)N([C@H]3C[C@@](C)(N5CC6CCC6C5)C3)C(=O)C4(C)C)nc(Nc3cc(C(=O)NC4(C(F)F)CC4)c(Cl)c(F)c3F)c21` (some centres unmarked) [Example 205, 5-((6-(1-((1s,3s)-3-(3-Azabicyclo[3.2.0]heptan-3-yl)-3-methylcyclobutyl)-3,3-dimethyl-2-oxo-2,3-dihydro-1H-pyrrolo[3,2-b]pyridin-6-yl)-3-isopropyl-3H-imidazo[4,5-c]pyridin-4-yl)amino)-2-chloro-N-(1-(difluoromethyl)cyclopropyl)-3,4-difluorobenzamide]: 0.1 nM.

Turning to `Cc1cc(F)c(Nc2nc(-c3cnc4c(c3)N([C@H]3C[C@@](C)(N5CCCCC5)C3)C(=O)C43CCOCC3)cc3ncn(C(C)C)c23)cc1C(=O)NC1(C(F)F)CC1` [Example 206, N-(1-(Difluoromethyl)cyclopropyl)-4-fluoro-5-((3-isopropyl-6-(1′-((1s,3s)-3-methyl-3-(piperidin-1-yl)cyclobutyl)-2′-oxo-1′,2,2′,3,5,6-hexahydrospiro[pyran-4,3′-pyrrolo[3,2-b]pyridin]-6′-yl)-3H-imidazo[4,5-c]pyridin-4-yl)amino)-2-methylbenzamide], the IC50 was determined as 0.07 nM. The same measure for `CC(C)n1cnc2cc(-c3cnc4c(c3)N([C@H]3C[C@@](C)(N5CCCCC5)C3)C(=O)C4(C)C)nc(Nc3cc(C(=O)NC4(C(F)F)CC4)c(Cl)c(F)c3F)c21` [Example 207, 2-Chloro-N-(1-(difluoromethyl)cyclopropyl)-5-((6-(3,3-dimethyl-1-((1s,3s)-3-methyl-3-(piperidin-1-yl)cyclobutyl)-2-oxo-2,3-dihydro-1H-pyrrolo[3,2-b]pyridin-6-yl)-3-isopropyl-3H-imidazo[4,5-c]pyridin-4-yl)amino)-3,4-difluorobenzamide]: 0.08 nM; for `Cc1c(C(=O)NC2(C(F)F)CC2)cc(Nc2nc(-c3cnc4c(c3)N([C@H]3C[C@@](C)(N5CCCOCC5)C3)C(=O)C4(C)C)cc3ncn(C(C)C)c23)c(F)c1F` [Example 208, N-(1-(Difluoromethyl)cyclopropyl)-5-((6-(3,3-dimethyl-1-((1s,3s)-3-methyl-3-(1,4-oxazepan-4-yl)cyclobutyl)-2-oxo-2,3-dihydro-1H-pyrrolo[3,2-b]pyridin-6-yl)-3-isopropyl-3H-imidazo[4,5-c]pyridin-4-yl)amino)-3,4-difluoro-2-methylbenzamide]: 0.09 nM. The same measure for `Cc1c(C(=O)NC2(C(F)F)CC2)cc(Nc2nc(-c3cnc4c(c3)N([C@H]3C[C@@](C)(N5CC6CCC6C5)C3)C(=O)C4(C)C)cc3ncn(C(C)C)c23)c(F)c1F` (some centres unmarked) [Example 209, 5-((6-(1-((1s,3s)-3-(3-Azabicyclo[3.2.0]heptan-3-yl)-3-methylcyclobutyl)-3,3-dimethyl-2-oxo-2,3-dihydro-1H-pyrrolo[3,2-b]pyridin-6-yl)-3-isopropyl-3H-imidazo[4,5-c]pyridin-4-yl)amino)-N-(1-(difluoromethyl)cyclopropyl)-3,4-difluoro-2-methylbenzamide]: 0.08 nM; for `CC(C)n1cnc2cc(-c3cnc4c(c3)N([C@H]3C[C@@](C)(N5CCCCC5)C3)C(=O)C43CCOCC3)nc(Nc3cc(C(=O)NC4(C(F)F)CC4)c(Cl)c(F)c3F)c21` [Example 210, 2-Chloro-N-(1-(difluoromethyl)cyclopropyl)-3,4-difluoro-5-((3-isopropyl-6-(1′-((1s,3s)-3-methyl-3-(piperidin-1-yl)cyclobutyl)-2′-oxo-1′,2,2′,3,5,6-hexahydrospiro[pyran-4,3′-pyrrolo[3,2-b]pyridin]-6′-yl)-3H-imidazo[4,5-c]pyridin-4-yl)amino)benzamide]: 0.08 nM; for `CC(C)n1cnc2cc(-c3cnc4c(c3)N([C@H]3C[C@@](C)(N5CCCCC5)C3)C(=O)C4(C)C)nc(Nc3cc(C(=O)NC4(CF)CC4)c(Cl)c(F)c3F)c21` [Example 211, 2-Chloro-5-((6-(3,3-dimethyl-1-((1s,3s)-3-methyl-3-(piperidin-1-yl)cyclobutyl)-2-oxo-2,3-dihydro-1H-pyrrolo[3,2-b]pyridin-6-yl)-3-isopropyl-3H-imidazo[4,5-c]pyridin-4-yl)amino)-3,4-difluoro-N-(1-(fluoromethyl)cyclopropyl)benzamide]: 0.1 nM. The same measure for `Cc1cc(F)c(Nc2nc(-c3cnc4c(c3)N([C@H]3C[C@@](C)(N5C6CCC5COC6)C3)C(=O)C4(C)C)cc3ncn(C(C)C)c23)cc1C(=O)NC1(C(F)F)CC1` [Example 212, 5-((6-(1-((1s,3s)-3-(3-Oxa-8-azabicyclo[3.2.1]octan-8-yl)-3-methylcyclobutyl)-3,3-dimethyl-2-oxo-2,3-dihydro-1H-pyrrolo[3,2-b]pyridin-6-yl)-3-isopropyl-3H-imidazo[4,5-c]pyridin-4-yl)amino)-N-(1-(difluoromethyl)cyclopropyl)-4-fluoro-2-methylbenzamide]: 0.3 nM; for `CC[C@]1(N2CCCCC2)C[C@@H](N2C(=O)C(C)(C)c3ncc(-c4cc5ncn(C(C)C)c5c(Nc5cc(C(=O)NC6(C(F)F)CC6)c(C)cc5F)n4)cc32)C1` [Example 213, N-(1-(Difluoromethyl)cyclopropyl)-5-((6-(1-((1r,3s)-3-ethyl-3-(piperidin-1-yl)cyclobutyl)-3,3-dimethyl-2-oxo-2,3-dihydro-1H-pyrrolo[3,2-b]pyridin-6-yl)-3-isopropyl-3H-imidazo[4,5-c]pyridin-4-yl)amino)-4-fluoro-2-methylbenzamide]: 0.3 nM. On to `Cc1c(C(=O)NC2(C(F)F)CC2)cc(Nc2nc(-c3cnc4c(c3)N([C@H]3C[C@@](C)(N5CCCCC5)C3)CC4(C)C)cc3ncn(C(C)C)c23)c(F)c1F` [Example 214, N-(1-(Difluoromethyl)cyclopropyl)-5-((6-(3,3-dimethyl-1-((1s,3s)-3-methyl-3-(piperidin-1-yl)cyclobutyl)-2,3-dihydro-1H-pyrrolo[3,2-b]pyridin-6-yl)-3-isopropyl-3H-imidazo[4,5-c]pyridin-4-yl)amino)-3,4-difluoro-2-methylbenzamide], for which the IC50 turned out to be 0.1 nM.

As to `Cc1cc(F)c(Nc2nc(-c3cnc4c(c3)N([C@H]3C[C@@](C)(N5CCOCC5)C3)C(=O)C4(C)C)cc3ncn(C(C)C)c23)cc1C(=O)NC1(C(F)F)CC1` [Example 215, N-(1-(Difluoromethyl)cyclopropyl)-5-((6-(3,3-dimethyl-1-((1s,3s)-3-methyl-3-morpholinocyclobutyl)-2-oxo-2,3-dihydro-1H-pyrrolo[3,2-b]pyridin-6-yl)-3-isopropyl-3H-imidazo[4,5-c]pyridin-4-yl)amino)-4-fluoro-2-methylbenzamide], the IC50 is 0.1 nM. The same measure for `Cc1cc(F)c(Nc2nc(-c3cnc4c(c3)N([C@H]3C[C@@](C)(N5CCCCC5)C3)C(=O)C4(C)C)cc3ncn(C(C)C)c23)cc1C(=O)NC1(C(F)F)CC1` [Example 216, N-(1-(Difluoromethyl)cyclopropyl)-5-((6-(3,3-dimethyl-1-((1s,3s)-3-methyl-3-(piperidin-1-yl)cyclobutyl)-2-oxo-2,3-dihydro-1H-pyrrolo[3,2-b]pyridin-6-yl)-3-isopropyl-3H-imidazo[4,5-c]pyridin-4-yl)amino)-4-fluoro-2-methylbenzamide]: 0.1 nM; for `Cc1c(C(=O)NCC(F)F)cc(Nc2nc(-c3cnc4c(c3)N([C@H]3C[C@@](C)(N5CCCCC5)C3)C(=O)C4(C)C)cc3ncn(C(C)C)c23)c(F)c1F` [Example 217, N-(2,2-Difluoroethyl)-5-((6-(3,3-dimethyl-1-((1s,3s)-3-methyl-3-(piperidin-1-yl)cyclobutyl)-2-oxo-2,3-dihydro-1H-pyrrolo[3,2-b]pyridin-6-yl)-3-isopropyl-3H-imidazo[4,5-c]pyridin-4-yl)amino)-3,4-difluoro-2-methylbenzamide]: 0.06 nM; for `CC(C)n1cnc2cc(-c3cnc4c(c3)N([C@H]3C[C@@](C)(N5CCCCC5)C3)C(=O)C4(C)C)nc(Nc3cc(C(=O)NC4(C(F)F)CC4)ccc3F)c21` [Example 218, N-(1-(difluoromethyl)cyclopropyl)-3-((6-(3,3-dimethyl-1-((1s,3s)-3-methyl-3-(piperidin-1-yl)cyclobutyl)-2-oxo-2,3-dihydro-1H-pyrrolo[3,2-b]pyridin-6-yl)-3-isopropyl-3H-imidazo[4,5-c]pyridin-4-yl)amino)-4-fluorobenzamide]: 0.06 nM.

For the molecule `Cc1cc(F)c(Nc2nc(-c3cnc4c(c3)N([C@H]3C[C@@](C)(N5CCCCC5)C3)CC4(C)C)cc3ncn(C(C)C)c23)cc1C(=O)NC1(C(F)F)CC1` [Example 219, N-(1-(Difluoromethyl)cyclopropyl)-5-((6-(3,3-dimethyl-1-((1s,3s)-3-methyl-3-(piperidin-1-yl)cyclobutyl)-2,3-dihydro-1H-pyrrolo[3,2-b]pyridin-6-yl)-3-isopropyl-3H-imidazo[4,5-c]pyridin-4-yl)amino)-4-fluoro-2-methylbenzamide], the 50% inhibitory concentration (IC50) turned out to be 0.2 nM. For the molecule `Cc1c(C(=O)NC(C)C)cc(Nc2nc(-c3cnc4c(c3)N([C@H]3C[C@@](C)(N5CCCCC5)C3)C(=O)C4(C)C)cc3ncn(C(C)C)c23)c(F)c1F` [Example 220, 5-((6-(3,3-Dimethyl-1-((1s,3s)-3-methyl-3-(piperidin-1-yl)cyclobutyl)-2-oxo-2,3-dihydro-1H-pyrrolo[3,2-b]pyridin-6-yl)-3-isopropyl-3H-imidazo[4,5-c]pyridin-4-yl)amino)-3,4-difluoro-N-isopropyl-2-methylbenzamide], the IC50 is 0.09 nM.

(Values after patent US11203591B2, “Substituted 6-azabenzimidazole compounds” (Gilead Sciences, Inc., priority 2018, dated 2021).)
